From patent US20250101041A1, “POSITIVE ALLOSTERIC MODULATORS OF THE MUSCARINIC ACETYLCHOLINE RECEPTOR M4” (Vanderbilt University, priority 2022, published 2025)
pEC50: −log10 of the molar value.

Biological target: T1, human mAChR M4 (Homo sapiens, UniProt P08173)
T1 construct: expressed in transfected cells; host or cells: CHO-K1 (American Type Culture Collection), stably expressing hM4 and Gqi5
T1 sequence (P08173 1-479): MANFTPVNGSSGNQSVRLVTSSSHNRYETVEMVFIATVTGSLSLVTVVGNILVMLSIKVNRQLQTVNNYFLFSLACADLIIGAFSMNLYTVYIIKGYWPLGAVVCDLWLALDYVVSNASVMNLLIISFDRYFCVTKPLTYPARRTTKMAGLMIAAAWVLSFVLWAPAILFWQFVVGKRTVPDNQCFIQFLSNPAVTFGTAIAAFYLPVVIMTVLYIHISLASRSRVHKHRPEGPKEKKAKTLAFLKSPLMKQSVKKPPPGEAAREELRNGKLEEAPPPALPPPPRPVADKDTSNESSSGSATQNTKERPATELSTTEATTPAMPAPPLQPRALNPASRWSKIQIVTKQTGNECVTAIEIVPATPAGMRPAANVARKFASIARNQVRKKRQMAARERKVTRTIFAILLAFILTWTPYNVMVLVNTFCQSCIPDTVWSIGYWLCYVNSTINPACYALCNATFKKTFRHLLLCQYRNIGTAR
Assay: mAChR M4 cell-based functional assay: calcium mobilization (Fluo-4, FDSS), potentiation of EC20 acetylcholine response in hM4-Gqi5 CHO-K1 cells
Details: human M4; for Emax at 30 µM: CHO-K1, % ACh maximum at 30 μM; for pEC50: potentiation of EC20 acetylcholine response, calcium mobilization
Summary of the method: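 CHO-K1 cells stably co-expressing human M4 and chimeric Gqi5, loaded with Fluo-4 AM (50 min, 37 °C). Compounds in 11-point 1:3 series added first; EC20 acetylcholine added at 144 s and again at 230 s. Calcium read on FDSS at 1 Hz; EC50 and Emax from four-parameter logistic fit of potentiated EC20 response.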

| Emax at 30 µM [%] | pEC50 | SMILES |
| --- | --- | --- |
| 71 | 6.11 | Cc1c(N2CCc3ncc(-c4cnn(-c5ccccc5F)c4)cc3C2)nn2c(=O)ccnc2c1C [Compound 1-193, 7-(3-(1-(2-fluorophenyl)-1H-pyrazol-4-yl)-7,8-dihydro-1,6-naphthyridin-6(5H)-yl)-8,9-dimethyl-4H-pyrimido[1,2-b]pyridazin-4-one] |
| 88 | 6.72 | Cc1c(N2CCc3ncc(-c4ccc(N5CCOCC5)nc4)cc3C2)nn2c(=O)ccnc2c1C [Compound 1-99, 8,9-dimethyl-7-(3-(6-morpholinopyridin-3-yl)-7,8-dihydro-1,6-naphthyridin-6(5H)-yl)-4H-pyrimido[1,2-b]pyridazin-4-one] |
| 95 | 6.54 | [2H]C1([2H])Cc2ncc(-c3c(C)noc3C)cc2C([2H])([2H])N1c1nn2c(=O)ccnc2cc1C [Compound 1-450, 7-(3-(3,5-Dimethylisoxazol-4-yl)-7,8-dihydro-1,6-naphthyridin-6(5H)-yl-5,5,7,7-d4)-8-methyl-4H-pyrimido[1,2-b]pyridazin-4-one] |
| 86 | 5.91 | Cc1cncc(-c2cnc3c(c2)CN(c2nn4c(=O)cc(C)nc4c(C)c2C)CC3)c1 [Compound 1-127, 2,8,9-trimethyl-7-(3-(5-methylpyridin-3-yl)-7,8-dihydro-1,6-naphthyridin-6(5H)-yl)-4H-pyrimido[1,2-b]pyridazin-4-one] |
| 82 | 5.91 | Cc1cc2nccc(=O)n2nc1N1CCc2ncc(-c3cn(C)nc3C(F)(F)F)cc2C1 [Compound 1-411, 8-methyl-7-(3-(1-methyl-3-(trifluoromethyl)-1H-pyrazol-4-yl)-7,8-dihydro-1,6-naphthyridin-6(5H)-yl)-4H-pyrimido[1,2-b]pyridazin-4-one] |
| 102 | 6.55 | Cc1cc2nc(C(=O)N3CC(C)C3)cc(=O)n2nc1N1CCc2ncc(C(F)(F)F)cc2C1 [Compound 1-56, 8-methyl-2-(3-methylazetidine-1-carbonyl)-7-(3-(trifluoromethyl)-7,8-dihydro-1,6-naphthyridin-6(5H)-yl)-4H-pyrimido[1,2-b]pyridazin-4-one] |
| 90 | 7.89 | Cc1cc2nc(C(F)F)cc(=O)n2nc1N1CCc2ncc(N3CCOc4ncccc43)cc2C1 [Compound 2-29, 2-(difluoromethyl)-7-(3-(2,3-dihydro-1H-pyrido[2,3-b][1,4]oxazin-1-yl)-7,8-dihydro-1,6-naphthyridin-6(5H)-yl)-8-methyl-4H-pyrimido[1,2-b]pyridazin-4-one] |
| 75 | 5.49 | Cc1c(N2CCc3ncc(-c4ccnn4C4COC4)cc3C2)nn2c(=O)ccnc2c1C [Compound 1-151, 8,9-dimethyl-7-(3-(1-(oxetan-3-yl)-1H-pyrazol-5-yl)-7,8-dihydro-1,6-naphthyridin-6(5H)-yl)-4H-pyrimido[1,2-b]pyridazin-4-one] |
| 87 | 6.00 | CCc1ccccc1-c1cnc2c(c1)CN(c1nn3c(=O)cc(C)nc3c(C)c1C)CC2 [Compound 1-249, 7-(3-(2-ethylphenyl)-7,8-dihydro-1,6-naphthyridin-6(5H)-yl)-2,8,9-trimethyl-4H-pyrimido[1,2-b]pyridazin-4-one] |
| 77 | 6.50 | Cc1c(N2CCc3ncc(-n4cccn4)cc3C2)nn2c(=O)ccnc2c1C [Compound 2-34, 7-(3-(1H-pyrazol-1-yl)-7,8-dihydro-1,6-naphthyridin-6(5H)-yl)-8,9-dimethyl-4H-pyrimido[1,2-b]pyridazin-4-one] |
| 95 | 7.32 | Cc1cc2nccc(=O)n2nc1N1CCc2ncc(-c3sccc3C)cc2C1 [Compound 1-409, 8-methyl-7-(3-(3-methylthiophen-2-yl)-7,8-dihydro-1,6-naphthyridin-6(5H)-yl)-4H-pyrimido[1,2-b]pyridazin-4-one] |
| 55 | 5.62 | Cc1cc2nccc(=O)n2nc1N1CCc2ncc(-c3ccc(F)nc3F)cc2C1 [Compound 1-318, 7-(3-(2,6-difluoropyridin-3-yl)-7,8-dihydro-1,6-naphthyridin-6(5H)-yl)-8-methyl-4H-pyrimido [1,2-b]pyridazin-4-one] |
| 87 | 6.66 | COc1ccccc1Nc1cnc2c(c1)CN(c1nn3c(=O)ccnc3cc1C)CC2 [Compound 2-62, 7-(3-((2-methoxyphenyl)amino)-7,8-dihydro-1,6-naphthyridin-6(5H)-yl)-8-methyl-4H-pyrimido[1,2-b]pyridazin-4-one] |
| 80 | 6.40 | Cc1c(N2CCc3ncc(-c4cncc(C(F)(F)F)c4)cc3C2)nn2c(=O)cc(C(F)F)nc2c1C [Compound 1-154, 2-(difluoromethyl)-8,9-dimethyl-7-(3-(5-(trifluoromethyl)pyridin-3-yl)-7,8-dihydro-1,6-naphthyridin-6(5H)-yl)-4H-pyrimido[1,2-b]pyridazin-4-one] |
| 75 | 7.40 | Cc1cc2nccc(=O)n2nc1N1CCc2ncc(Oc3ccccc3F)cc2C1 [Compound 3-1, 7-(3-(2-fluorophenoxy)-7,8-dihydro-1,6-naphthyridin-6(5H)-yl)-8-methyl-4H-pyrimido[1,2-b]pyridazin-4-one] |
| 83 | 7.74 | Cc1cc(=O)n2nc(N3CCc4ncc(N5CCCn6nccc65)cc4C3)c(C)c(C)c2n1 [Compound 2-23, 7-(3-(6,7-dihydropyrazolo[1,5-a]pyrimidin-4(5H)-yl)-7,8-dihydro-1,6-naphthyridin-6(5H)-yl)-2,8,9-trimethyl-4H-pyrimido[1,2-b]pyridazin-4-one] |
| 97 | 5.62 | Cc1cc2nccc(=O)n2nc1N1CCc2ncc(-c3ccc(C#N)nc3C)cc2C1 [Compound 1-421, 6-methyl-5-(6-(8-methyl-4-oxo-4H-pyrimido[1,2-b]pyridazin-7-yl)-5,6,7,8-tetrahydro-1,6-naphthyridin-3-yl)picolinonitrile] |
| 82 | 6.23 | Cc1cc2nccc(=O)n2nc1N1CCc2ncc(-c3cn(C(F)F)nc3C)cc2C1 [Compound 1-417, 7-(3-(1-(difluoromethyl)-3-methyl-1H-pyrazol-4-yl)-7,8-dihydro-1,6-naphthyridin-6(5H)-yl)-8-methyl-4H-pyrimido[1,2-b]pyridazin-4-one] |
| 65 | 6.28 | Cc1cc2nccc(=O)n2nc1N1CCc2ncc(Nc3ccc(C(C)C)nc3)cc2C1 [Compound 2-101, 7-(3-((6-isopropylpyridin-3-yl)amino)-7,8-dihydro-1,6-naphthyridin-6(5H)-yl)-8-methyl-4H-pyrimido[1,2-b]pyridazin-4-one] |
| 71 | 5.99 | Cc1c(N2CCc3ncc(-c4cnn(-c5ccccn5)c4)cc3C2)nn2c(=O)cc(C(F)F)nc2c1C [Compound 1-163, 2-(difluoromethyl)-8,9-dimethyl-7-(3-(1-(pyridin-2-yl)-1H-pyrazol-4-yl)-7,8-dihydro-1,6-naphthyridin-6(5H)-yl)-4H-pyrimido[1,2-b]pyridazin-4-one] |
| 71 | 6.28 | Cc1cc2nccn2cc1-c1cnc2c(c1)CN(c1nn3c(=O)cc(C(F)F)nc3c(C)c1C)CC2 [Compound 1-162, 2-(difluoromethyl)-8,9-dimethyl-7-(3-(7-methylimidazo[1,2-a]pyridin-6-yl)-7,8-dihydro-1,6-naphthyridin-6(5H)-yl)-4H-pyrimido[1,2-b]pyridazin-4-one] |
| 77 | 5.96 | Cc1cc(F)c(F)c(-c2cnc3c(c2)CN(c2nn4c(=O)cc(C(F)F)nc4c(C)c2C)CC3)c1 [Compound 1-284, 7-(3-(2,3-difluoro-5-methylphenyl)-7,8-dihydro-1,6-naphthyridin-6(5H)-yl)-2-(difluoromethyl)-8,9-dimethyl-4H-pyrimido[1,2-b] pyridazin-4-one] |
| 93 | 7.70 | Cc1cc2nccc(=O)n2nc1N1CCc2ncc(N3CC(C)Oc4ccccc43)cc2C1 (stereo not shown) [Compound 2-57, 8-methyl-7-(3-(2-methyl-2,3-dihydro-4H-benzo[b][1,4]oxazin-4-yl)-7,8-dihydro-1,6-naphthyridin-6(5H)-yl)-4H-pyrimido[1,2-b]pyridazin-4-one] |
| 83 | 5.56 | Cc1cc2nccc(=O)n2nc1N1CCc2ncc(NS(C)(=O)=O)cc2C1 [Compound 2-117, N-(6-(8-methyl-4-oxo-4H-pyrimido[1,2-b]pyridazin-7-yl)-5,6,7,8-tetrahydro-1,6-naphthyridin-3-yl)methanesulfonamide] |
| 77 | 6.40 | Cc1c(N2CCc3ncc(-c4ccccc4F)cc3C2)nn2c(=O)ccnc2c1C [Compound 1-343, 7-(3-(2-fluorophenyl)-7,8-dihydro-1,6-naphthyridin-6(5H)-yl)-8,9-dimethyl-4H-pyrimido[1,2-b]pyridazin-4-one] |
| 70 | 6.15 | Cc1cc(OC(F)F)ncc1-c1cnc2c(c1)CN(c1nn3c(=O)ccnc3cc1C)CC2 [Compound 1-317, 7-(3-(6-(difluoromethoxy)-4-methylpyridin-3-yl)-7,8-dihydro-1,6-naphthyridin-6(5H)-yl)-8-methyl-4H-pyrimido[1,2-b]pyridazin-4-one] |
